Values of other authors, collected in patent US20030198619A1, “Formulation and dosage form for increasing oral bioavailability of hydrophilic macromolecules” (priority 2001, published 2003).
Where two headings read alike, the source gives them in different places.

Legend:
[1] = in vivo

oral bioavailability [1] | elimination half-life in urine (after oral administration) | oral bioavailability (in humans) | elimination half-life (mean value following IV injection) | Molecule
about 0.15% |  |  |  | NC(=O)CC[C@@H]1NC(=O)[C@H](Cc2ccccc2)NC(=O)[C@H](Cc2ccc(O)cc2)NC(=O)CCSSC[C@@H](C(=O)N2CCC[C@H]2C(=O)N[C@H](CCCN=C(N)N)C(=O)NCC(N)=O)NC(=O)[C@H](CC(N)=O)NC1=O [dDAVP, Desmopressin]
 | 4.8 h | approximately 3% | 24 h | pentosan polysulfate sodium [PPS]
